According to US11524968B2, “Heterocyclic compound as a protein kinase inhibitor” (HK inno.N Corporation, priority 2017, dated 2022):

Molecular target: JAK1 (Homo sapiens (Human), UniProt P23458)
Assay: Analysis of JAK1 activity inhibition ability (ADP-Glo Kinase Assay)
Type: biochemical
Details: JAK1 enzyme, ADP-Glo luminescence, ATP 250 uM, IRS-itide substrate, 30° C. 40 minutes; read-out: IC50
Procedure, shortened: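 JAK1 enzyme, IRS-itide substrate (40 ng/mL) and 250 uM ATP, both as prepared in kinase buffer (Tris-HCl pH 7.5, MgCl2, BSA, DTT), reacted with compound 40 min at 30 °C. ADP formed was detected by ADP-Glo luminescence; IC50 is the concentration giving 50% inhibition versus control.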

Chain of JAK1 (P23458 whole entry): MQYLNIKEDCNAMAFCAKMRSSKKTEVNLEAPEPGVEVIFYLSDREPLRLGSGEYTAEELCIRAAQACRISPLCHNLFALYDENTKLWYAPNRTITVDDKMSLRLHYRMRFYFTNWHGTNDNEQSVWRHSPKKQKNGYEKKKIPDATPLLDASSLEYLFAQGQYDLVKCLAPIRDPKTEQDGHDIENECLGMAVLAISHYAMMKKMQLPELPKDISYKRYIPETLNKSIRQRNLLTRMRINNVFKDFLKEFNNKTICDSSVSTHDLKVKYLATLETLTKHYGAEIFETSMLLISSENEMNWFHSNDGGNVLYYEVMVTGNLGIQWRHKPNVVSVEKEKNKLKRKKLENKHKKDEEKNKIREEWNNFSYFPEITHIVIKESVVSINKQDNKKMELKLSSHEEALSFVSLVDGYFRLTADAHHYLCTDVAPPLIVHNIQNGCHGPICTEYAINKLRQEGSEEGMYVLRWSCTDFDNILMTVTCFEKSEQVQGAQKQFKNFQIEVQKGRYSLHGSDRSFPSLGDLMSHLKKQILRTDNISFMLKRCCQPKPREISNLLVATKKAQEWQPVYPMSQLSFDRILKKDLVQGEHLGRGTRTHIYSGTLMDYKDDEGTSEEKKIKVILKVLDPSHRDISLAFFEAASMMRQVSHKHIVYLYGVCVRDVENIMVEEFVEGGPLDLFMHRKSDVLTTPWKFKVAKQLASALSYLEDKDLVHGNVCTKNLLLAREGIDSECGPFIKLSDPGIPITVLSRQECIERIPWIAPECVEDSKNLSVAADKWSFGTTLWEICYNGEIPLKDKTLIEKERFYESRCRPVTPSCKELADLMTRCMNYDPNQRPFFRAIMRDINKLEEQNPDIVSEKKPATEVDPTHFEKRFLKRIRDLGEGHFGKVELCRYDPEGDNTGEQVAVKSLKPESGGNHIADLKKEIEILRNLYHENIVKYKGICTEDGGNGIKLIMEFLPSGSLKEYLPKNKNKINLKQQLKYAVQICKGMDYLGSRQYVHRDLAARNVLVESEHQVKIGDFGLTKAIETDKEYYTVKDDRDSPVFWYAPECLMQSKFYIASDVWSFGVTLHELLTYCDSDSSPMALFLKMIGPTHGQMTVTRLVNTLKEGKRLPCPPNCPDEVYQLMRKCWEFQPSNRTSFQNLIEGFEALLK

SMILES	IC50 [nM]
CCc1cc(NS(=O)(=O)C2CC2)ccc1-c1cc(NC(=O)C2CC2)nc2[nH]ccc12 [Example 113, N-(4-(4-(cyclopropanesulfonamido)-2-ethylphenyl)-1H-pyrrolo[2,3-b]pyridin-6-yl)cyclopropanecarboxamide]	< 20
CCc1cc(NS(=O)(=O)C2CCC2)ccc1-c1cc(NC(=O)C2CC2)nc2[nH]ccc12 [Example 114, N-(4-(4-(cyclobutanesulfonamido)-2-ethylphenyl)-1H-pyrrolo[2,3-b]pyridin-6-yl)cyclopropanecarboxamide]	< 20
O=C(Nc1cc(-c2ccc(NS(=O)(=O)C3CCC3)cc2C(F)(F)F)c2cc[nH]c2n1)C1CC1 [Example 120, N-(4-(4-(cyclobutanesulfonamido)-2-(trifluoromethyl)phenyl)-1H-pyrrolo[2,3-b]pyridin-6-yl)cyclopropanecarboxamide]	20 to 200
CCc1cc(-c2cc(NC(=O)C3CC3)nc3[nH]ccc23)ccc1NS(=O)(=O)CC1(C#N)CC1 [Example 123, N-(4-(4-(((1-cyanocyclopropyl)methyl)sulfonamido)-3-ethylphenyl)-1H-pyrrolo[2,3-b]pyridin-6-yl)cyclopropanecarboxamide]	< 20
CCc1cc(-c2cc(NC(=O)C3CC3)nc3[nH]ccc23)ccc1NS(=O)(=O)C1CC1 [Example 125, N-(4-(4-(cyclopropanesulfonamido)-3-ethylphenyl)-1H-pyrrolo[2,3-b]pyridin-6-yl)cyclopropanecarboxamide]	< 20
CCCS(=O)(=O)Nc1ccc(-c2cc(NC(=O)C3CC3)nc3[nH]ccc23)cc1CC [Example 126, N-(4-(3-ethyl-4-(propylsulfonamido)phenyl)-1H-pyrrolo[2,3-b]pyridin-6-yl)cyclopropanecarboxamide]	< 20
CCCCS(=O)(=O)Nc1ccc(-c2cc(NC(=O)C3CC3)nc3[nH]ccc23)cc1CC [Example 127, N-(4-(4-(butylsulfonamido)-3-ethylphenyl)-1H-pyrrolo[2,3-b]pyridin-6-yl)cyclopropanecarboxamide]	20 to 200
CS(=O)(=O)Nc1ccc(-c2cc(NC(=O)C3CC3)nc3[nH]ccc23)cc1-c1ccccc1 [Example 129, N-(4-(6-(methylsulfonamido)-[1,1′-biphenyl]-3-yl)-1H-pyrrolo[2,3-b]pyridin-6-yl)cyclopropanecarboxamide]	> 200
O=C(Nc1cc(-c2ccc(NS(=O)(=O)C3CC3)c(-c3ccccc3)c2)c2cc[nH]c2n1)C1CC1 [Example 130, N-(4-(6-(cyclopropanesulfonamido)-[1,1′-biphenyl]-3-yl)-1H-pyrrolo[2,3-b]pyridin-6-yl)cyclopropanecarboxamide]	> 200
CCS(=O)(=O)Nc1ccc(-c2cc(NC(=O)C3CC3)nc3[nH]ccc23)c(C)c1C [Example 131, N-(4-(4-(ethylsulfonamido)-2,3-dimethylphenyl)-1H-pyrrolo[2,3-b]pyridin-6-yl)cyclopropanecarboxamide]	20 to 200
Cc1c(NS(=O)(=O)C2CC2)ccc(-c2cc(NC(=O)C3CC3)nc3[nH]ccc23)c1C [Example 133, N-(4-(4-(cyclopropanesulfonamido)-2,3-dimethylphenyl)-1H-pyrrolo[2,3-b]pyridin-6-yl)cyclopropanecarboxamide]	< 20
CCS(=O)(=O)Nc1ccc(-c2cc(NC(=O)C3CC3)[n+]([O-])c3[nH]ccc23)c(C)c1 [Example 134, 6-(cyclopropanecarboxamido)-4-(4-(ethylsulfonamido)-2-methylphenyl)-1H-pyrrolo[2,3-b]pyridine 7-oxide]	20 to 200
CCc1cc(-c2cc(NC(=O)C3CC3)[n+]([O-])c3[nH]ccc23)ccc1NS(=O)(=O)CC [Example 135, 6-(cyclopropanecarboxamido)-4-(3-ethyl-4-(ethylsulfonamido)phenyl)-1H-pyrrolo[2,3-b]pyridine 7-oxide]	20 to 200
CCc1cc(-c2cc(NC(=O)C3CC3)nc3[nH]ccc23)cc(CC)c1NS(=O)(=O)CC1(C#N)CC1 [Example 138, N-(4-(4-(((1-cyanocyclopropyl)methyl)sulfonamido)-3,5-diethylphenyl)-1H-pyrrolo[2,3-b]pyridin-6-yl)cyclopropanecarboxamide]	> 200
CCS(=O)(=O)Nc1ccc(-c2cc(NC(=O)C3CC3)nc3[nH]ccc23)c(C(=O)OC)c1 [Example 140, methyl 2-(6-(cyclopropanecarboxamido)-1H-pyrrolo[2,3-b]pyridin-4-yl)-5-(ethylsulfonamido)benzoate]	> 200
CCCS(=O)(=O)Nc1ccc(-c2cc(NC(=O)C3CC3)nc3[nH]ccc23)c(C(=O)OC)c1 [Example 141, methyl 2-(6-(cyclopropanecarboxamido)-1H-pyrrolo[2,3-b]pyridin-4-yl)-5-(propylsulfonamido)benzoate]	> 200
N#CC1(CS(=O)(=O)Nc2ccc(-c3cc(NC(=O)C4CC4)nc4[nH]ccc34)c(C(=O)O)c2)CC1 [Example 143]	> 200

Further lines, results first:

IC50 [nM]	SMILES
< 20	CCc1cc(NS(=O)(=O)CCCC#N)ccc1-c1cc(NC(=O)C2CC2)nc2[nH]ccc12 [Example 111, N-(4-(4-((3-cyanopropyl)sulfonamido)-2-ethylphenyl)-1H-pyrrolo[2,3-b]pyridin-6-yl)cyclopropanecarboxamide]
20 to 200	CCc1cc(NS(=O)(=O)C2CCCCC2)ccc1-c1cc(NC(=O)C2CC2)nc2[nH]ccc12 [Example 112, N-(4-(4-(cyclohexanesulfonamido)-2-ethylphenyl)-1H-pyrrolo[2,3-b]pyridin-6-yl)cyclopropanecarboxamide]
< 20	CCCS(=O)(=O)Nc1ccc(-c2cc(NC(=O)C3CC3)nc3[nH]ccc23)c(CC)c1 [Example 115, N-(4-(2-ethyl-4-(propylsulfonamido)phenyl)-1H-pyrrolo[2,3-b]pyridin-6-yl)cyclopropanecarboxamide]
20 to 200	CCCCS(=O)(=O)Nc1ccc(-c2cc(NC(=O)C3CC3)nc3[nH]ccc23)c(CC)c1 [Example 116, N-(4-(4-(butylsulfonamido)-2-ethylphenyl)-1H-pyrrolo[2,3-b]pyridin-6-yl)cyclopropanecarboxamide]
< 20	Cc1cc(NS(=O)(=O)CCCC(F)(F)F)ccc1-c1cc(NC(=O)C2CC2)nc2[nH]ccc12 [Example 117, N-(4-(2-methyl-4-((4,4,4-trifluorobutyl)sulfonamido)phenyl)-1H-pyrrolo[2,3-b]pyridin-6-yl)cyclopropanecarboxamide]
20 to 200	O=C(Nc1cc(-c2ccc(NS(=O)(=O)C3CC3)cc2C(F)(F)F)c2cc[nH]c2n1)C1CC1 [Example 118, N-(4-(4-(cyclopropanesulfonamido)-2-(trifluoromethyl)phenyl)-1H-pyrrolo[2,3-b]pyridin-6-yl)cyclopropanecarboxamide]
20 to 200	CCCS(=O)(=O)Nc1ccc(-c2cc(NC(=O)C3CC3)nc3[nH]ccc23)c(C(F)(F)F)c1 [Example 119, N-(4-(4-(propylsulfonamido)-2-(trifluoromethyl)phenyl)-1H-pyrrolo[2,3-b]pyridin-6-yl)cyclopropanecarboxamide]
20 to 200	O=C(Nc1cc(-c2ccc(NS(=O)(=O)c3ccc(F)c(F)c3)cc2C(F)(F)F)c2cc[nH]c2n1)C1CC1 [Example 121, N-(4-(4-((3,4-difluorophenyl)sulfonamido)-2-(trifluoromethyl)phenyl)-1H-pyrrolo[2,3-b]pyridin-6-yl)cyclopropanecarboxamide]
20 to 200	O=C(Nc1cc(-c2ccc(NS(=O)(=O)c3cccc(F)c3)cc2C(F)(F)F)c2cc[nH]c2n1)C1CC1 [Example 122, N-(4-(4-((3-fluorophenyl)sulfonamido)-2-(trifluoromethyl)phenyl)-1H-pyrrolo[2,3-b]pyridin-6-yl)cyclopropanecarboxamide]
< 20	CCc1cc(-c2cc(NC(=O)C3CC3)nc3[nH]ccc23)ccc1NS(=O)(=O)CC [Example 124, N-(4-(3-ethyl-4-(ethylsulfonamido)phenyl)-1H-pyrrolo[2,3-b]pyridin-6-yl)cyclopropanecarboxamide]
< 20	CCc1cc(-c2cc(NC(=O)C3CC3)nc3[nH]ccc23)ccc1NS(=O)(=O)C1CCC1 [Example 128, N-(4-(4-(cyclobutanesulfonamido)-3-ethylphenyl)-1H-pyrrolo[2,3-b]pyridin-6-yl)cyclopropanecarboxamide]
20 to 200	CCCS(=O)(=O)Nc1ccc(-c2cc(NC(=O)C3CC3)nc3[nH]ccc23)c(C)c1C [Example 132, N-(4-(2,3-dimethyl-4-(propylsulfonamido)phenyl)-1H-pyrrolo[2,3-b]pyridin-6-yl)cyclopropanecarboxamide]
20 to 200	Cc1c(NS(=O)(=O)C2CC2)ccc(-c2cc(NC(=O)C3CC3)[n+]([O-])c3[nH]ccc23)c1C [Example 136, 6-(cyclopropanecarboxamido)-4-(4-(cyclopropanesulfonamido)-2,3-dimethylphenyl)-1H-pyrrolo[2,3-b]pyridine 7-oxide]
< 20	CCc1cc(NS(=O)(=O)CC2(C#N)CC2)ccc1-c1cc(NC(=O)C2CC2)[n+]([O-])c2[nH]ccc12 [Example 137, 4-(4-(((1-cyanocyclopropyl)methyl)sulfonamido)-2-ethylphenyl)-6-(cyclopropanecarboxamido)-1H-pyrrolo[2,3-b]pyridine 7-oxide]
> 200	CCc1cc(-c2cc(NC(=O)C3CC3)nc3[nH]ccc23)cc(CC)c1NS(=O)(=O)c1ccc(F)c(F)c1 [Example 139, N-(4-(4-((3,4-difluorophenyl)sulfonamido)-3,5-diethylphenyl)-1H-pyrrolo[2,3-b]pyridin-6-yl)cyclopropanecarboxamide]
> 200	COC(=O)c1cc(NS(=O)(=O)CC2(C#N)CC2)ccc1-c1cc(NC(=O)C2CC2)nc2[nH]ccc12 [Example 142, methyl 5-(((1-cyanocyclopropyl)methyl)sulfonamido)-2-(6-(cyclopropanecarboxamido)-1H-pyrrolo[2,3-b]pyridin-4-yl)benzoate]
